Starred links: 1 amine or outer side, 2 acyl side, 3 side chain; linkers in the order of their positions; H or OH if unused. Non-standard residues stand in square brackets, D forms with d. Primed or numbered codes have the meaning given here. *: point of attachment. Tyr(2,6Cl2-Z) = 2,6-dichlorobenzyl-L-tyrosine, O=C([C@H](Cc1ccc(OCc2c(Cl)cccc2Cl)cc1)N[*:1])[*:2]; Glu(Bzl) = L-glutamic acid benzyl ester, O=C(CC[C@H](N[*:1])C(=O)[*:2])OCc1ccccc1; diphenyl phosphonate = C-terminal diphenyl phosphonate (Arg^P(OPh)2); BODIPY(FL) = CC1=CC(C)=[N+]2C1=Cc1ccc(CCC(=O)*)n1[B-]2(F)F; 1Nal = N[C@@H](Cc1cccc2ccccc12)C(=O)O; ACC = NC(=O)Cc1cc(=O)oc2cc(N*)ccc12; Igl = N[C@H](C(=O)O)C1Cc2ccccc2C1; hArg = N=C(N)NCCCC[C@H](N)C(=O)O; Agp = N=C(N)NC[C@H](N)C(=O)O; PEG4′ = PEG linker, 4 units; Nle = CCCC[C@H](N)C(=O)O; Dab = NCC[C@H](N)C(=O)O; Cbz = O=C(OCc1ccccc1)*; Cy3 = Cy3 fluorophore; Ahx = NCCCCCC(=O)O
Tests used:
Assay type in all cases: biochemical
fXa = fXa (Homo sapiens, UniProt P00742); assay: Inhibition kinetics (kobs/I) under pseudo first-order conditions, fXa; conditions: 10 nM fXa, substrate 50 μM SMII18, pH 7.4, 37° C.
Method: (§1) The Kobs/l parameters towards APC, fIIa, fXa, and fXIa were measured under pseudo first-order conditions (Table 1). The assay buffer contained 20 mM Tris-base, 150 mM NaCl, 5 mM CaCl2), pH 7.4. Each ABP or inhibitor was serially diluted until the seventh well to obtain the concentrations ranging from 308 nM to 100 µM, depending on the ABP/inhibitor used. The assay conditions were as follows: 20 μL of selected substrate (154 μM SMA5 for APC, 100 μM SMA4 for fIIa, 50 μM SMII18 for fXa, and 100 μM SMX1 for fXIa) was added into the wells containing 20 μL of seven different ABP/inhibitor concentrations. Next, 60 μL of APC, fIIa, fXa, or fXIa (at the concentration of 10 nM) preincubated for 15 min at 37° C. was added, and the fluorescence increase over time was measured (λex=355 nm, λem=460 nm) for 30 min. The Kobs/l values were calculated using GraphPad Prism and Microsoft Excel software as described previously.

APC [1] = molecular target: T1, APC (Homo sapiens, UniProt P04070); assay: Screen of APC tetrapeptide fluorogenic substrates; conditions: for activity and selectivity for APC in the substrate screen: out of substrates SMA1-SMA26
Method: (§2) To minimize potential cross reactivity, a detailed kinetic analysis of the four APC-selective substrates was performed against the other proteases.

fXIa = fXIa (Homo sapiens, UniProt P03951); assay: Inhibition kinetics (kobs/I) under pseudo first-order conditions, fXIa; conditions: 10 nM fXIa, substrate 100 μM SMX1, pH 7.4, 37° C.
Method: as §1

APC [2] = molecular target: T1, APC; assay: Inhibition kinetics (kobs/I) under pseudo first-order conditions, APC; conditions: 10 nM APC, substrate 154 μM SMA5, pH 7.4, 37° C.
Method: as §1

[3] = tested on: other coagulation factors; assay: Substrate hydrolysis by other coagulation factors
Method: as §2

APC [4] = molecular target: T1, APC; assay: Kinetic parameters (kcat/KM) of fluorogenic substrates, APC; conditions: APC versus other coagulation factors
Method: The Kcat/KM parameters towards APC, thrombin and fXa were measured using the procedure described in Modrzycka et al. Chemical Science, 2022, 13, 6813-6829.

fIIa = fIIa (Homo sapiens, UniProt P00734); assay: Inhibition kinetics (kobs/I) under pseudo first-order conditions, fIIa; conditions: 10 nM fIIa, substrate 100 μM SMA4, pH 7.4, 37° C.
Method: as §1

T1 sequence (P04070 212-461 limits assumed): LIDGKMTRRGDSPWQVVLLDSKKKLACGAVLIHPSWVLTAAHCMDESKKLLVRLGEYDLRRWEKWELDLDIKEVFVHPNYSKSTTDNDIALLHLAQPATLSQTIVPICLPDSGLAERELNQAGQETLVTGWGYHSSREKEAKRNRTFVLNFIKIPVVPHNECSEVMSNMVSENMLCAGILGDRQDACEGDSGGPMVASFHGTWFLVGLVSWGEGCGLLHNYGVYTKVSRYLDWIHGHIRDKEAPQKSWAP
T1 sequence (P04070 43-197 partner limits assumed): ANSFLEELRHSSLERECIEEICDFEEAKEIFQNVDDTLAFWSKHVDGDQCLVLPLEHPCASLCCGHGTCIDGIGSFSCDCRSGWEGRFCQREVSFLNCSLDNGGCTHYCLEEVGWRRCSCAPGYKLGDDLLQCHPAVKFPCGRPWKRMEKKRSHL
Sequence of fXIa (P03951 388-625 limits assumed): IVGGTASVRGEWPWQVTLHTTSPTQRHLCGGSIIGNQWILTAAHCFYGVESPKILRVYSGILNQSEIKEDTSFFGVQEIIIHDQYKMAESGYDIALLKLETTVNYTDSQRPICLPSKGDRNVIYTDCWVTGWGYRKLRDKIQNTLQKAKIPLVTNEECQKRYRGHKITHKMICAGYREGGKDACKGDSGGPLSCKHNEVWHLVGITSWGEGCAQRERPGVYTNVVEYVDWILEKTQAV
Sequence of fXIa (P03951 19-387 partner limits assumed): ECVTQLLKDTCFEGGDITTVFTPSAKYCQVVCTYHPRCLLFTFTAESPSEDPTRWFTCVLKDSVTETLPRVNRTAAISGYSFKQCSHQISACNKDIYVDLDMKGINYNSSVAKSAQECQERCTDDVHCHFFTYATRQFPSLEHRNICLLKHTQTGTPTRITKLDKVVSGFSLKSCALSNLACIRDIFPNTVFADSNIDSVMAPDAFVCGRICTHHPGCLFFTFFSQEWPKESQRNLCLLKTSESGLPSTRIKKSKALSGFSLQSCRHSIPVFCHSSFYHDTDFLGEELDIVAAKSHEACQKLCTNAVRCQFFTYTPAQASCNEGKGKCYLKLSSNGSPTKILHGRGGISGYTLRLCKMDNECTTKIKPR
Sequence of fXa (P00742 235-488 limits assumed): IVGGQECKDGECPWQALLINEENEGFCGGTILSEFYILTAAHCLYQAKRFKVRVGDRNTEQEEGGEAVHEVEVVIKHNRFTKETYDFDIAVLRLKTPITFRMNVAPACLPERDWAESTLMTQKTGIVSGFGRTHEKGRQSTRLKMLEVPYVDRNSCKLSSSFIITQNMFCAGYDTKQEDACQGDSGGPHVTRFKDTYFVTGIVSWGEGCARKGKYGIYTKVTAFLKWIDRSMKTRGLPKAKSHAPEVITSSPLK
Sequence of fXa (P00742 41-179 partner limits assumed): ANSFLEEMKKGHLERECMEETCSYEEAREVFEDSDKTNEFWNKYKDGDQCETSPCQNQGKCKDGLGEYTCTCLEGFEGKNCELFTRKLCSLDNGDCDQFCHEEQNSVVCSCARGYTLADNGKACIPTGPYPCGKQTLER

Cy3-6-Ahx-DPro-hArg-1-Nal-Arg^P(OPh)2 ({Cy3-Ahx}-[dP][hArg][1Nal]R-{diphenyl phosphonate}) [P-SMX152]
kobs/I fXa (fXa): 1,800 ± 100 M^−1s^−1

Ac-K[Dab](Cbz)[Igl]R-{ACC} [SMA 5]
activity and selectivity for APC in the substrate screen (APC [1]): showed the most activity and selectivity for APC | cleavage efficiency compared to the best natural substrate (SMA54) (APC [1]; relative to SMA54): approximately 50 fold

Bodipy-PEG(4)-Tyr(2,6Cl2-Z)-Nle-Glu(Bzl)-Arg^P(OPh)2 ({BODIPY(FL)-PEG4′}-[Tyr(2,6Cl2-Z)][Nle][Glu(Bzl)]R-{diphenyl phosphonate}) [P-SMXI52]
kobs/I fXIa (fXIa): 3,120 ± 100 M^−1s^−1

Cy5-6-Ahx-Lys-Dab(Z)-Lys-Arg^P(OPh)2 [P-SMA172]
kobs/I APC (APC [2]): 2,250 ± 170 M^−1s^−1

Ac-K[Dab](Cbz)KR-{ACC} [SMA 17]
activity and selectivity for APC in the substrate screen (APC [1]): showed the most activity and selectivity for APC | hydrolysis when tested with other coagulation factors [3]: almost nondetectable | Kcat/KM selectivity ratio (APC [4]): very high

Ac-Tyr(2,6Cl2-Z)-Nle-Glu(Bzl)-Arg^P(OPh)2 (Ac-[Tyr(2,6Cl2-Z)][Nle][Glu(Bzl)]R-{diphenyl phosphonate}) [I-SMXI5]
kobs/I fXIa (fXIa): 54,700 ± 2,800 M^−1s^−1

Ac-hCha-Cys(MeBzl)-Pip-Arg^P(OPh)2 [I-SMII22]
kobs/I fIIa (fIIa): 209,000 ± 13,800 M^−1s^−1

Ac-DPro-hArg-1-Nal-Arg^P(OPh)2 (Ac-[dP][hArg][1Nal]R-{diphenyl phosphonate}) [I-SMX15]
kobs/I fXa (fXa): 1,200 ± 100 M^−1s^−1

Ac-Lys-Dab(Z)-Lys-Arg^P(OPh)2 [I-SMA17]
kobs/I APC (APC [2]): 1,980 ± 20 M^−1s^−1

Ac-Lys-Agp-Igl-Arg-ACC (Ac-K[Agp][Igl]R-{ACC}; SMILES CC(=O)N[C@@H](CCCCN)C(=O)N[C@@H](CNC(=N)N)C(=O)N[C@H](C(=O)N[C@@H](CCCNC(=N)N)C(=O)Nc1ccc2c(CC(N)=O)cc(=O)oc2c1)C1Cc2ccccc2C1) [SMA 6, fluorogenic substrate for APC]
activity and selectivity for APC in the substrate screen (APC [1]): showed the most activity and selectivity for APC

Cy7-6-Ahx-hCha-Cys(MeBzl)-Pip-Arg^P(OPh)2 [P-SMII222]
kobs/I fIIa (fIIa): 3,500 ± 300 M^−1s^−1

Source: US20250208137A1, “COMPOUNDS FOR THE DETECTION AND INHIBITION OF COAGULATION PROTEASES” (Politechnika Wroclawska, priority 2022, published 2025)
